By inhibition is commonly meant the relative decrease from the control value, in per cent.

The values that follow come from PMC7177946, “Effect of Ferulic Acid, a Phenolic Inducer of Fungal Laccase, on 26S Proteasome Activities In Vitro” (International Journal of Molecular Sciences, 2020).

Experiment [1] addresses T1, human 26S proteasome, chymotrypsin-like (CHTL) site, β5 subunit (Homo sapiens, UniProt P28074).
T1 construct: gene PSMB5; commercial purified 26S complex (BostonBiochem); beta subunits mature with N-terminal Thr; with Proteasome subunit beta type-7; Proteasome subunit beta type-6
T1 sequence (P28074 60-263): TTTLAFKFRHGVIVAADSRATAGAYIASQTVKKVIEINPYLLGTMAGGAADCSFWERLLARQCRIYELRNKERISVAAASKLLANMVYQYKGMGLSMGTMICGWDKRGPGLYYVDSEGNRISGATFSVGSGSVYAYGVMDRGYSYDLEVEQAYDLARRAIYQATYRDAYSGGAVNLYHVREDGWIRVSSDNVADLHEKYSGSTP
Description: fluorogenic peptidase assay, Suc-LLVY-AMC. Type of experiment: biochemical. Particulars: read-out: % inhibition at 1 mM.

Experiment [2] concerns the target T2, human 26S proteasome, trypsin-like (TL) site, β2 subunit (Homo sapiens, UniProt Q99436).
T2 construct: gene PSMB7; commercial purified 26S complex (BostonBiochem); beta subunits mature with N-terminal Thr; with Proteasome subunit beta type-5; Proteasome subunit beta type-6
T2 sequence (Q99436 44-277): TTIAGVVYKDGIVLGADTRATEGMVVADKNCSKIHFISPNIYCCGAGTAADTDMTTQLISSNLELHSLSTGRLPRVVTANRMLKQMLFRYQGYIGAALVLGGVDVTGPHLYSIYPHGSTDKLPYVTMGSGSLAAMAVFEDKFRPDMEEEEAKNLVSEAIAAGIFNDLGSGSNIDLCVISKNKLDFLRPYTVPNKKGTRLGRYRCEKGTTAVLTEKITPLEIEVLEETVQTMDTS
Kind of experiment: fluorogenic peptidase assay, Z-GGR-AMC. The format is biochemical. Particulars: read-out: % inhibition at 1 mM.

In the case of `COc1cc(/C=C/C(=O)O)ccc1O` [ferulic acid, 4-hydroxy-3-methoxycinnamic acid], the inhibition at 1000 µM is 31% in experiment [1] and 30% in experiment [2].
